According to ChEMBL document CHEMBL1137889, “Synthesis and antienteroviral activity of a series of novel, oxime ether-containing pyridyl imidazolidinones” (Bioorg Med Chem Lett, 2004):

Key:
Coxsackievirus [1] = experiment: inhibition concentration required against coxsackievirus B2 was determined by plaque reduction assay; assay type: functional, organism-based
Enterovirus A71 [2] = experiment: inhibition concentration required against human enterovirus 71 (2086) genotype C was determined by plaque reduction assay; assay type: functional, organism-based; details: Enterovirus A
Echovirus [3] = experiment: inhibition concentration required against echovirus 9 was determined by plaque reduction assay; assay type: functional, organism-based
Enterovirus A71 [4] = experiment: inhibition concentration required against human enterovirus 71 (1743) genotype B was determined by plaque reduction assay; assay type: functional, organism-based; details: Enterovirus A
Coxsackievirus [5] = experiment: inhibition concentration required against coxsackievirus B1 was determined by plaque reduction assay; assay type: functional, organism-based
Enterovirus D68 = experiment: inhibition concentration required against human enterovirus 68 was determined by plaque reduction assay; details: Enterovirus D
Enterovirus A71 [6] = experiment: inhibition concentration required against human enterovirus 71 (2231) genotype C was determined by plaque reduction assay; assay type: functional, organism-based; details: Enterovirus A
Coxsackievirus [7] = experiment: inhibition concentration required against coxsackievirus B6 was determined by plaque reduction assay; assay type: functional, organism-based
Enterovirus A71 [8] = experiment: inhibition concentration required against human enterovirus 71 (BrCr) genotype A was determined by plaque reduction assay; assay type: functional, organism-based
Echovirus [9] = experiment: inhibition concentration required against echovirus 29 was determined by plaque reduction assay; assay type: functional, organism-based
Coxsackievirus [10] = experiment: inhibition concentration required against coxsackievirus A9 was determined by plaque reduction assay; assay type: functional, organism-based
Rhabdomyosarcoma cell = experiment: Concentration required for 50% cytotoxicity against human rhabdomyosarcoma cell lines; assay type: functional
Enterovirus A71 [11] = experiment: inhibition concentration required against human enterovirus 71 strain 4643 was determined by plaque reduction assay; assay type: functional, organism-based; details: Enterovirus A
Coxsackievirus [12] = experiment: inhibition concentration required against coxsackievirus A16 was determined by plaque reduction assay; assay type: functional, organism-based
Coxsackievirus [13] = experiment: inhibition concentration required against coxsackievirus A10 was determined by plaque reduction assay; assay type: functional, organism-based
Coxsackievirus [14] = experiment: inhibition concentration required against coxsackievirus B5 was determined by plaque reduction assay; assay type: functional, organism-based
Coxsackievirus [15] = experiment: inhibition concentration required against coxsackievirus B3 was determined by plaque reduction assay; assay type: functional, organism-based
Coxsackievirus [16] = experiment: inhibition concentration required against coxsackievirus A24 was determined by plaque reduction assay; assay type: functional, organism-based
Coxsackievirus [17] = experiment: inhibition concentration required against coxsackievirus B4 was determined by plaque reduction assay; assay type: functional, organism-based

Compound O=C1N(CCCCCOc2ccc(-c3ccc(Cl)cc3)cc2)CCN1c1ccncc1 has an IC50 (Coxsackievirus [1]) of over 25000 nM, an IC50 (Enterovirus A71 [2]) of 70 nM and an IC50 (Echovirus [3]) of 300 nM. For the same compound, the IC50 (Enterovirus A71 [4]) was 90 nM, the IC50 (Coxsackievirus [5]) was over 25000 nM and the IC50 (Enterovirus D68) was over 25000 nM. For the same compound, the IC50 (Enterovirus A71 [6]) was 80 nM, the IC50 (Coxsackievirus [7]) was over 25000 nM and the IC50 (Enterovirus A71 [8]) was 50 nM. For the same compound, the IC50 (Echovirus [9]) was 30 nM, the IC50 (Coxsackievirus [10]) was 40 nM and the CC50 (Rhabdomyosarcoma cell) was over 12500 nM. It also gave an IC50 (Enterovirus A71 [11]) of 30 nM, an IC50 (Coxsackievirus [12]) of over 25000 nM and an IC50 (Coxsackievirus [13]) of 8610 nM. It also gave an IC50 (Coxsackievirus [14]) of 4180 nM, an IC50 (Coxsackievirus [15]) of over 25000 nM and an IC50 (Coxsackievirus [16]) of 140 nM. The IC50 (Coxsackievirus [17]) was 3140 nM.
